Earlier results in PMC2853223 (ACS chemical biology, 2009).

System: DEBS 3
Conditions: mismatched PikAII/DEBS 3 pairing

PiKAII: pikromycin PKS protein PikAII, paired with DEBS 3 in vivo
association and transfer with DEBS 3 in vivo: productive association and transfer
